Consider 8 compounds from US12642779B1, “Albuterol aerosol suspension formulation for oral inhalation with high amount of green propellant hydrofluoroolefin (HFO) and free of co-solvent” (Amphastar Pharmaceuticals, Inc., priority 2025, dated 2026).

Like-named read-outs stand apart in the source and are kept apart here.

The conditions of data set [1]: cited from earlier work.
Data set [2] in a line: Surfactant solubility in HFO-1234ze (E) propellant. It is filed as physicochemical.

On to `F/C=C/C(F)(F)F` [HFO-1234ze(E), Trans-1,3,3,3-Tetrafluoropropene], for which, in data set [1], the “Liquid Density at 20° C.” value is on record as 1.19 g/mL, the “Vapor Pressure at 20° C.” value is recorded as 46.4 psi and the “Viscosity at 20° C.” value is given as 0.19 cP. Further, in data set [1] (at 20° C.), the Water solubility is 225 at 20 °C ppm.
On to polyvinylpyrrolidone K25 [PVP K25], for which the “Solubility of surfactant in HFO-1234ze (E)” value (“Solubility of surfactant” for short) in data set [2] was “exhibited certain solubility in HFO-1234ze (E) and showed homogenous phase”.
As for sorbitan trioleate [span 85], the “Solubility of surfactant” value in data set [2] was “exhibited certain solubility in HFO-1234ze (E) and showed homogenous phase”.
Regarding `FCC(F)(F)F` [HFA-134a, 1,1,1,2-Tetrafluoroethane], in data set [1], the “Liquid Density at 20° C.” value is given as 1.21 g/mL, the “Vapor Pressure at 20° C.” value is 83.0 psi and the “Viscosity at 20° C.” value is 0.20 cP. For the same compound, in data set [1] (at 25° C.), the Water solubility is 1100 at 25 °C ppm.
`FC(C(F)(F)F)C(F)(F)F` [HFA-227, 1,1,1,2,3,3,3-Heptafluoropropane]: in data set [1], the “Liquid Density at 20° C.” value is 1.41 g/mL, the “Vapor Pressure at 20° C.” value was 56.6 psi and the “Viscosity at 20° C.” value was 0.26 cP. The Water solubility in data set [1] (at 25° C.) is 610 at 25 °C ppm.
For the compound “polyoxyethylene (20) sorbitan monolaurate [polysorbate 20]”, in data set [2] (in HFO-1234ze (E) propellant), the “Solubility of surfactant” value was “exhibited certain solubility in HFO-1234ze (E) and showed homogenous phase”.
On to polyethylene glycol 1000 [PEG 1000], for which, in data set [2], the “Solubility of surfactant” value is “exhibited certain solubility in HFO-1234ze (E) and showed homogenous phase”.
With “polyoxyethylene (20) sorbitan monooleate [polysorbate 80]”, in data set [2], the “Solubility of surfactant” value is “exhibited certain solubility in HFO-1234ze (E) and showed homogenous phase”.
